In patent US4238495A, “1-(4-Cyano-phenoxy)-2-hydroxy-3-[2-(5-1H-tetrazolyl )-chromon-5-yloxy]-propane and salts thereof” (Miles Laboratories, Inc., priority 1976, dated 1980):

Legend:
[1] = test system: passive cutaneous anaphylaxis (skin wheals, egg albumin antigen); experiment: passive cutaneous anaphylaxis (PCA) test, egg albumin as the antigen, i.v.; assay type: in vivo; conditions: dose that reduced wheal diameter by 50%, injected i.v. together with antigen, rat PCA; for ED50: iv, read-out: ID50 (i.v.)
Experimental: (§1) Compounds described in above examples 3 and 4 were evaluated for anti-allergic activity in the rat by the passive cutaneous anaphylaxis test (hereafter PCA), utilizing egg albumin as the antigen.
The intensity of such PCA reactions is assessed by measuring the diameters of wheals which develop in the skin of the test animals. Details of the PCA test can be found in the following references: I. Mota, Life Sciences, 1: 465 (1963); and B. Ogilvie, Immunology, 12: 113 (1967).
(§2) In the following table, ID50 is the dose which reduced the diameter of the wheal by 50% when injected intravenously together with the antigen. LD50 is the intravenous dose that caused death in 50% of the test animals. Therapeutic index is the ratio, LD50/ID50. The reference compounds utilized were: disodium chromoglycate (DSCG); 1-(phenoxy)-2-hydroxy-3-[2-(5-1H-tetrazolyl)-chromon-5-yloxy]-propane; 1-(4-chloro-phenoxy)-2-hydroxy-3-[2-(5-1H-tetrazolyl)-chromon-5-yloxy]-propane; 1-(4-hydroxy-phenoxy)-2-hydroxy-3-[2-5-1H-tetrazolyl)-chromon-5-yloxy]-propane; 1-(4-propyl-phenoxy)-2-hydroxy-3-[2-5-1H-tetrazolyl)-chromon-5-yloxy]-propane; and sodium 1-(4-cyano-phenoxy)-2-hydroxy-3-(2-carboxy-chromon-5-yloxy)-propane.

[2] = intravenous lethality (LD50) in test animals; conditions: rat
Excerpt: as §2

[3] = therapeutic index, LD50/ID50 (i.v. lethality over PCA); conditions: rat, in vivo, iv
Experimental: as §1, §2

[4] = test system: passive cutaneous anaphylaxis (skin wheals, egg albumin antigen); experiment: as above
Experimental: as §1, §2

[5] = iv, LD50 (i.v.), i.v. dose that caused death in 50% of test animals
[6] = THERAPEUTIC INDEX, ratio LD50/ID50

SMILES | ED50 [1] [µmol/kg] | LD50 [2, 5] [µmol/kg] | selectivity ratio [3, 6] | other results
O=c1cc(-c2nnn[nH]2)oc2cccc(OCC(O)COc3ccc(Cl)cc3)c12 (stereo not drawn) [Augstein Cl, 1-(4-chloro-phenoxy)-2-hydroxy-3-[2-(5-1H-tetrazolyl)-chromon-5-yloxy]-propane] | 1.8 | – | – | LD50 ([2]; in vivo): > 1.8 µmol/kg; selectivity ratio [3]: > 1
N#Cc1ccc(OCC(O)COc2cccc3oc(C(=O)O)cc(=O)c23)cc1.[Na] (stereo not drawn) | – | – | – | LD50 ([2]; iv, LD50 (i.v.)): 2380 µmol/kg; selectivity ratio [3]: 3170
O=c1cc(-c2nnn[nH]2)oc2cccc(OCC(O)COc3ccccc3)c12 (stereo not drawn) [Augstein H, 1-(phenoxy)-2-hydroxy-3-[2-(5-1H-tetrazolyl)-chromon-5-yloxy]-propane] | 2.25 | > 1050 | > 467 | –
CCCc1ccc(OCC(O)COc2cccc3oc(-c4nnn[nH]4)cc(=O)c23)cc1 (stereo not drawn) [Augstein C3 H7] | > 25 | > 493 | > 19.7 | –
N#Cc1ccc(OCC(O)COc2cccc3oc(-c4nnn[nH]4)cc(=O)c23)cc1 (stereo not drawn) [Ex. 3, 1-(4-CYANO-PHENOXY)-2-HYDROXY-3-[2-(5-1H-TETRAZOLYL)CHROMON-5-YLOXY]-PROPANE] | 0.075 | > 1180 | > 15800 | therapeutic index, times greater than the nearest conger disclosed in Warren ([4]; rat, in vivo): about 5 times; therapeutic index, times greater than DSCG ([4]; versus DSCG): about 15 times
O=c1cc(-c2nnn[nH]2)oc2cccc(OCC(O)COc3ccc(O)cc3)c12 (stereo not drawn) [Augstein OH] | 0.675 | 1260 to 4950 | 1870 to 7480 | –
N#Cc1ccc(OCC(O)COc2cccc3oc(-c4nnn[nH]4)cc(=O)c23)cc1 (stereo not drawn) [compound 4, SODIUM 1-(4-CYANOPHENOXY)-2-HYDROXY-3-[2-(5-1H-TETRAZOLYL)CHROMON-5-YLOXY]-PROPANE] | – | – | – | ID50 (i.v.) [1]: 0.075 µmol/kg; therapeutic index compared with prior art compounds ([4]; versus any of the prior art compounds): still more superior than any of the prior art compounds
O=C(O)c1cc(=O)c2c(OCC(O)COc3cccc4oc(C(=O)O)cc(=O)c34)cccc2o1 [DSCG, disodium chromoglycate] | 1.7 | 1950 | 1150 | –
